# Activity calls are given as the source filed them.
# Columns and labels:
# SUMO-activating enzyme = SUMO-activating enzyme (Homo sapiens, UniProt Q9UBT2); assay: blockers of SAE1/SAE2–UBC9 SUMO transfer – biochemical, HTRF, uHTS, primary screen (AID 2006); type: protein-complex assay
# Hexokinase HKDC1 = target: T1, Hexokinase HKDC1 (Homo sapiens, UniProt Q2TB90); assay: inhibition of HKDC1 glucose phosphorylation – biochemical, W721R variant, dose response (AID 504729); type: functional
# T1 sequence (Q2TB90 whole entry): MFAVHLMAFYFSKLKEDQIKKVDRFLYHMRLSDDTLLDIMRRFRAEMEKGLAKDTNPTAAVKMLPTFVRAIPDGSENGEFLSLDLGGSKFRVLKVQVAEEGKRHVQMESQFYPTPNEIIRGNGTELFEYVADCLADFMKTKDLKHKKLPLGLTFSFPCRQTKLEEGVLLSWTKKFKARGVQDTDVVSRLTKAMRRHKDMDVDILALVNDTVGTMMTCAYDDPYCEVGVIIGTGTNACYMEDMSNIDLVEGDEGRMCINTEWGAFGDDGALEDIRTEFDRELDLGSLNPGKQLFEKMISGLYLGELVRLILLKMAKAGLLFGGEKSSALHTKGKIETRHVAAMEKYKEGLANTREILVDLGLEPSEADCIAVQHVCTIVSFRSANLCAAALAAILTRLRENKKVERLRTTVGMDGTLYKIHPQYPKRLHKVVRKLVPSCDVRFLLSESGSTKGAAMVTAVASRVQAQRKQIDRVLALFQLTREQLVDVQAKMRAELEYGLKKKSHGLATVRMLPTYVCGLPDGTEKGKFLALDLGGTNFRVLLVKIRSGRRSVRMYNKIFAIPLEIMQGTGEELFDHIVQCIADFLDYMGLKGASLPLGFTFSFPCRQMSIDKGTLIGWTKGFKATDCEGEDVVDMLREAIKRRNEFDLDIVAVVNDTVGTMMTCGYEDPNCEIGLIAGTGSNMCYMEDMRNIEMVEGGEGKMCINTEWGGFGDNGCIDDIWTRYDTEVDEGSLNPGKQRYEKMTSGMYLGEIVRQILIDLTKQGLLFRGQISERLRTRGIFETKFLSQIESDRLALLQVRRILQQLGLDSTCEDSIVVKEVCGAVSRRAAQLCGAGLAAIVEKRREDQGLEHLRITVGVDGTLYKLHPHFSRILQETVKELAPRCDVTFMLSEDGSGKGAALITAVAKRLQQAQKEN
# [1] = target: T2, Tyrosyl-DNA phosphodiesterase 2 (Homo sapiens, UniProt O95551); assay: potency against TDP2 phosphodiesterase activity – biochemical, epi absorbance, IC50, dose response (AID 743297)
# T2 sequence (O95551 whole entry): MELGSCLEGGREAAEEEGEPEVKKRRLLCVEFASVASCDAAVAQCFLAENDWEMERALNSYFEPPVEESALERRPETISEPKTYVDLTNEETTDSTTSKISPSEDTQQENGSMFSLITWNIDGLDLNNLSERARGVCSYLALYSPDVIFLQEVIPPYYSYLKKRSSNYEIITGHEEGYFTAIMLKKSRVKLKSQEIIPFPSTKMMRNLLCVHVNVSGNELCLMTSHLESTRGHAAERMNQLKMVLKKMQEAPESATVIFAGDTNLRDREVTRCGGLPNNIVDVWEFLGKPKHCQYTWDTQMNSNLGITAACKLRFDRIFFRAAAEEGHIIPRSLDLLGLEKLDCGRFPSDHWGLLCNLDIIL
# [2] = target: T3, Carboxy-terminal domain RNA polymerase II polypeptide A small phosphatase 1 (Homo sapiens, UniProt Q9GZU7); assay: CTDSP1 inhibitors, concentration-response, biochemical, absorbance readout, ultra-high-throughput screen actives (AID 540297); type: functional
# T3 sequence (Q9GZU7 whole entry): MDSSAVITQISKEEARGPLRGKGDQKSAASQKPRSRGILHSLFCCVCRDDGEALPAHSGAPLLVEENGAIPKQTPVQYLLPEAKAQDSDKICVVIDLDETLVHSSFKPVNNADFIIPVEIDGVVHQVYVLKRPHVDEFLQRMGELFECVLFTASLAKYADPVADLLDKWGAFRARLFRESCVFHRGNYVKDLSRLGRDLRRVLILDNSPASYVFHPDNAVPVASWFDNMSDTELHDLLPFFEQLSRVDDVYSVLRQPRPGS
# INS1 = assay: INS-1E survival protection against cytokine death – cell-based, luminescence, retest, dose response (AID 449756); type: functional; conditions: Rattus norvegicus;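 note: cell death triggered by IL-1 beta plus TNF-alpha plus IFN-gamma mixture; protective hits raise ATP signal compared with cytokine alone wells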
# [3] = luciferase reporter signal suppression in cells – H4 neuroglioma cells, luminescence, dose response (AID 1990); type: functional, cell-based
# [4] = Luminescence Cell-Based Dose Response HTS to Identify Inhibitors of 5'UTR Stem-Loop Driven Prion Protein mRNA Translation in H4 Neuroglioblastoma Cells. [Related pubchem assays: 1827 (Project Summary), 1813 (Primary HTS)]; type: functional
# [5] = alpha-synuclein stem-loop luciferase translation blockers – H4 neuroglioma cells, luminescence, confirmation (AID 1988); type: functional, cell-based
# ORF 73 = ORF 73 (Human herpesvirus 8, UniProt O40947); assay: KSHV LANA DNA-binding disruption – biochemical, fluorescence polarization, cherry-picked samples, dose response (AID 504725); parameters: species or system Human gammaherpesvirus 8;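 note: fluorescence polarization of a labeled DNA duplex reporting LANA DNA binding; potency is for inhibitors that block LANA binding to the DNA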
# Keap1/Nrf2 = Keap1/Nrf2 (Homo sapiens, UniProt Q14145); assay: disruptors of Keap1 binding to Nrf2 peptide – biochemical, fluorescence polarization, cherry-picked samples, dose response (AID 588683)
# Exodeoxyribonuclease V = Exodeoxyribonuclease V (Escherichia coli (strain K12), UniProt P04993+P07648+P08394); assay: RecBCD inhibition via phage-restricted bacterial growth – absorbance, V66 E. coli, mutant T4 phage, counter-screen for AddAB inhibitor project, dose response (AID 492957); type: functional, cell-based, Escherichia coli str. K-12 substr. MG1655
# Focal adhesion kinase 1 = Focal adhesion kinase 1 (Homo sapiens, UniProt Q05397); type: functional;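 note: measured as one member of a kinome panel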
# [6] = target: BDNF/NT-3 growth factors receptor (Homo sapiens, UniProt Q16620); type: functional;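 note: NTRK2 measured as one member of a broad kinome-wide kinase profiling panel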
# [7] = target: Proto-oncogene tyrosine-protein kinase receptor Ret (Homo sapiens, UniProt P07949); type: functional;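 note: measured within a kinome-wide profiling panel, RET as the panel member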
# [8] = target: cAMP-dependent protein kinase catalytic subunit PRKX (Homo sapiens, UniProt P51817); type: functional
# Focal adhesion kinase 1, sequence (Q05397 whole entry): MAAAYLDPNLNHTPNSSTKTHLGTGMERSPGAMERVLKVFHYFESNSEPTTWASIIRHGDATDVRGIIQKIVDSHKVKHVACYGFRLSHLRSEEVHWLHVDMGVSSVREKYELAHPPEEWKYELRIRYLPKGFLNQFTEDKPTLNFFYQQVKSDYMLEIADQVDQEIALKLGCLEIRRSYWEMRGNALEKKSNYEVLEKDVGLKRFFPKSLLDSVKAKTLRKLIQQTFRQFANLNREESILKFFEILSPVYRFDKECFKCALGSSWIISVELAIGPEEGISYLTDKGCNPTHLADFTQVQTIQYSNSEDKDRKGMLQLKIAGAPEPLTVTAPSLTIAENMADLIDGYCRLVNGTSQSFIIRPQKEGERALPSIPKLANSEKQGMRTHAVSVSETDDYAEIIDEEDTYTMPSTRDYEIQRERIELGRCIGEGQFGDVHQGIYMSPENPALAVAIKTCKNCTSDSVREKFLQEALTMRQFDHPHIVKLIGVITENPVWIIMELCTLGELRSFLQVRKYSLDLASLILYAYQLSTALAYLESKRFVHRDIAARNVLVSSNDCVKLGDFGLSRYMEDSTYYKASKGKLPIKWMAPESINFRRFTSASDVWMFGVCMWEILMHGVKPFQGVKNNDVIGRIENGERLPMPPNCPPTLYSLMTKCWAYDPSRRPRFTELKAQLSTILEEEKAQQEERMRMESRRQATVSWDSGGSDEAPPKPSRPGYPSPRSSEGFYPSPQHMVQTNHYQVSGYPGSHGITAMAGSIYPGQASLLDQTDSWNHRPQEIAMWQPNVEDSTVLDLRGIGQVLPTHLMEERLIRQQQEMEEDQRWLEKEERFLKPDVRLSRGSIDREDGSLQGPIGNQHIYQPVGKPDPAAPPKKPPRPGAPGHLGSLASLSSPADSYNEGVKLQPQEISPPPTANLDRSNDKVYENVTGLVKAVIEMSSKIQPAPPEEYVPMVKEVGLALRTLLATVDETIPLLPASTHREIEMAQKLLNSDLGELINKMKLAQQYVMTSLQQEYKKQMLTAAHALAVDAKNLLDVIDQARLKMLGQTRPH
# ORF 73, sequence (O40947 whole entry): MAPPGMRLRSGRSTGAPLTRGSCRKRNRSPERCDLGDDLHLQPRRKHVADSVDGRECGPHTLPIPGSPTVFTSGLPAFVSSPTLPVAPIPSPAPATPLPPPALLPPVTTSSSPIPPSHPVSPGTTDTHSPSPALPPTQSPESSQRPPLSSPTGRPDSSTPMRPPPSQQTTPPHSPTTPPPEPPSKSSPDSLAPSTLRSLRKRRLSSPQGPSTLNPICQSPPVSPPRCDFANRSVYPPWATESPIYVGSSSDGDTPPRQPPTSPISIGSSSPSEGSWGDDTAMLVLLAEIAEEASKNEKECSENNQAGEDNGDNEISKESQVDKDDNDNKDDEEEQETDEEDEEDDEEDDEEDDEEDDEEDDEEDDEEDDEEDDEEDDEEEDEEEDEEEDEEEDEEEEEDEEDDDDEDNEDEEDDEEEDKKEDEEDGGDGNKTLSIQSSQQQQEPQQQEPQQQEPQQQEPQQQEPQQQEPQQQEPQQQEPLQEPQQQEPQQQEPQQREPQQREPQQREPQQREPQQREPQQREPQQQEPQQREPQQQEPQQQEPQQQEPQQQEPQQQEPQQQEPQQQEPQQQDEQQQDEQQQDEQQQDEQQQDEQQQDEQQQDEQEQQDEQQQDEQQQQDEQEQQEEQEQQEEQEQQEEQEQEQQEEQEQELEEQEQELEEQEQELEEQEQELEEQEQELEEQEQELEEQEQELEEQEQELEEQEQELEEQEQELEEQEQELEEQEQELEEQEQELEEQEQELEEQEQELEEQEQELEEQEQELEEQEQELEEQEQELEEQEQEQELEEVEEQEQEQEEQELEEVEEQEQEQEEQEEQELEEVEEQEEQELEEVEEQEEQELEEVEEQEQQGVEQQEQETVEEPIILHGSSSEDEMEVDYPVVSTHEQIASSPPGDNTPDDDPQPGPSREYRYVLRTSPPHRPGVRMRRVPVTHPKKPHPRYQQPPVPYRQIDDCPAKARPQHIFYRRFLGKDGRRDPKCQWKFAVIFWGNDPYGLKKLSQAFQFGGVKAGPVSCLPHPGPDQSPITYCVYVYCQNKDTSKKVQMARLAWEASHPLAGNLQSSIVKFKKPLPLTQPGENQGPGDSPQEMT
# Exodeoxyribonuclease V, sequence (P04993 whole entry): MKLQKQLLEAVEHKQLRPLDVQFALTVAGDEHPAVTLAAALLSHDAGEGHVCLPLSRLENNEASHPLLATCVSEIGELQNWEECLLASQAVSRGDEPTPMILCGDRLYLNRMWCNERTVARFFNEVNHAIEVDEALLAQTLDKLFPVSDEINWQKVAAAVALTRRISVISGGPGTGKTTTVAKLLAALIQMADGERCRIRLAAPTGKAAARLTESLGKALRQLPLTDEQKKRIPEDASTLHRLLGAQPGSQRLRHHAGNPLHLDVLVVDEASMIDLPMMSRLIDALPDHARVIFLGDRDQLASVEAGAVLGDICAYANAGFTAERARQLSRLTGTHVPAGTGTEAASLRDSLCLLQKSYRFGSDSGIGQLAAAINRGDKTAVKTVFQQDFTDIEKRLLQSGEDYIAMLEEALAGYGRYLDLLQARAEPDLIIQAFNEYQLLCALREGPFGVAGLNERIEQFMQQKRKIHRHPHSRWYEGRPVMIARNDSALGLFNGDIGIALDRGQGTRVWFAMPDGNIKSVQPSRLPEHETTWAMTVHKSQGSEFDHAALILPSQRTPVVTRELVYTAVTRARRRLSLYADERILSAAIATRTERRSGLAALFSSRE
# Exodeoxyribonuclease V, sequence (P07648 whole entry): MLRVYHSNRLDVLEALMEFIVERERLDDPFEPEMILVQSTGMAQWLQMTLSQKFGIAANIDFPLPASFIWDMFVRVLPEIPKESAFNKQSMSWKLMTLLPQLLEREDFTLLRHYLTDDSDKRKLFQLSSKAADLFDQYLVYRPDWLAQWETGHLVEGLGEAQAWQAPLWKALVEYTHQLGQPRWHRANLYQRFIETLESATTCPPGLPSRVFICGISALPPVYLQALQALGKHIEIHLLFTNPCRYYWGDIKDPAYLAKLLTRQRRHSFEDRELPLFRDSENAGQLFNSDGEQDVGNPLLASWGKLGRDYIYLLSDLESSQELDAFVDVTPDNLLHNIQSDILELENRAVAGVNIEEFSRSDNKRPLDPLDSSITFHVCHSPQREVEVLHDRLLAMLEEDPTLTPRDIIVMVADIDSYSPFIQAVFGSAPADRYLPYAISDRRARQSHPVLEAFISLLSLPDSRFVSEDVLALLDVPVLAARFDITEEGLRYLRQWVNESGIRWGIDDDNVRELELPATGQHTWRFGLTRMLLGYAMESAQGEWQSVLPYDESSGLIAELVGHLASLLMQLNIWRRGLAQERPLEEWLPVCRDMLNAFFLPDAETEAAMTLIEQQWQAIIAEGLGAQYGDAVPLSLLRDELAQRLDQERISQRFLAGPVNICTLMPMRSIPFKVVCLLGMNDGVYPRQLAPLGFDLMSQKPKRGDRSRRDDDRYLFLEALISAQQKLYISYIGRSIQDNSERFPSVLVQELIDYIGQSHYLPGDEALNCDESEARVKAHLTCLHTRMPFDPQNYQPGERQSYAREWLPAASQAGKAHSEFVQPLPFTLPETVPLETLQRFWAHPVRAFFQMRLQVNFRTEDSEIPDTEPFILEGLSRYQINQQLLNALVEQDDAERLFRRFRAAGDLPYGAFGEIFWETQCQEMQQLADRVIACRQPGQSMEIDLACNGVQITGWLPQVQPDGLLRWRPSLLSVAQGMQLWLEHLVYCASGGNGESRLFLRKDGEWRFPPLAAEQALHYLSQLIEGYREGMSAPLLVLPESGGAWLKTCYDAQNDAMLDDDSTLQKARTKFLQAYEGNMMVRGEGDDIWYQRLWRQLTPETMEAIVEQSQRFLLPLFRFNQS
# Exodeoxyribonuclease V, sequence (P08394 whole entry): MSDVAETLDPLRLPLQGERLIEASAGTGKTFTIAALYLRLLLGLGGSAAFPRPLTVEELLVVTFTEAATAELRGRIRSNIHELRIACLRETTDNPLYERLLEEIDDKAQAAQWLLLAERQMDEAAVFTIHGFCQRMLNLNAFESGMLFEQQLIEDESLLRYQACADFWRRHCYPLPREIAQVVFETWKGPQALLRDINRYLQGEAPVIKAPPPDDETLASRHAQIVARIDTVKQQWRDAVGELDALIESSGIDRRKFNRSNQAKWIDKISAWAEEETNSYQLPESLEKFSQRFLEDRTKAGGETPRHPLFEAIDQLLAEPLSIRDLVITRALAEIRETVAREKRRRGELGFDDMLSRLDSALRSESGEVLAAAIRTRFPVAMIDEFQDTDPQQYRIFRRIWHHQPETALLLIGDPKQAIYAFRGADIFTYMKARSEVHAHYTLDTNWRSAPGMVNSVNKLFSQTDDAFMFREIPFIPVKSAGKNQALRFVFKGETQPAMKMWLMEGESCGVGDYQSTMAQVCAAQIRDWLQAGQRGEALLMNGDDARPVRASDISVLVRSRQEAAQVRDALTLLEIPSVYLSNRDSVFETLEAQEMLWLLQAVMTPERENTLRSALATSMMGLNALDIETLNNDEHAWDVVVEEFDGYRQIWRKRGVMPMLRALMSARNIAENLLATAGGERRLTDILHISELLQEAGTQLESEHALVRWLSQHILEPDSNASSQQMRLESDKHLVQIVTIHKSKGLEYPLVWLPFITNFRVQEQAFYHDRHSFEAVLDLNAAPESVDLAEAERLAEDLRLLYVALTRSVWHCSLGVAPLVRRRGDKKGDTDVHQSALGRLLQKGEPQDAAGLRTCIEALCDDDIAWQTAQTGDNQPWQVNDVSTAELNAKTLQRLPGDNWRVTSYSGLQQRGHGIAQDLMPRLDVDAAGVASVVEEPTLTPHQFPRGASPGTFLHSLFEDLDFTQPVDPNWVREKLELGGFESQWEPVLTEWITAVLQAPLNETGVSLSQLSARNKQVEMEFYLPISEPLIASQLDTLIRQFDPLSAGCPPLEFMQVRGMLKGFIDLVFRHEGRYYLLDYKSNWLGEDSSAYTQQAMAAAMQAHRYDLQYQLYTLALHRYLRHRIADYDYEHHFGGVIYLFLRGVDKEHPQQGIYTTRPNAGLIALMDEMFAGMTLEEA
smiles,measurement,setting,value
CC(=O)NC1C(=O)N(CCN2CCOCC2)c2ccc(F)cc21 (stereo not given),IC50,SUMO-activating enzyme,12.3 µM (active)
same,IC50,Hexokinase HKDC1,9.43 µM (active)
same,IC50,[1],33.4 µM (inactive)
O=C1N=C(NS(=O)(=O)Cc2ccccc2)S/C1=C1\C(=O)Nc2ccccc21,IC50,[2],16.7 µM (active)
O=C1C=C(N2CCCCC2)c2ccccc2C1=O,IC50,Hexokinase HKDC1,1.34 µM (active)
same,IC50,[1],5.32 µM (active)
same,AC50,INS1,4.98 µM (active)
same,EC50,[3],> 120 µM (not active)
same,EC50,[4],8.27 µM (active)
same,EC50,[5],9.02 µM (active)
O=C(O)C1Nc2c(O)cc(Cl)c([N+](=O)[O-])c2C2C=CCC12 (stereo not given),AC50,ORF 73,5.02 µM (active)
same,AC50,Keap1/Nrf2,> 52 µM (inactive)
O=C(CCc1ccccc1)NNc1cc(N2CCCCC2)nc(N2CCCCC2)n1,EC50,[3],> 120 µM (not active)
same,EC50,[4],> 120 µM (not active)
same,EC50,[5],> 120 µM (not active)
Oc1ccc(N=Nc2c(O)ccc3ccccc23)cc1,IC50,Exodeoxyribonuclease V,> 118 µM (inactive)
Cc1n[nH]c2ccc(-c3cncc(OCC(N)Cc4cccc(Cl)c4)c3)cc12 (stereo not given),Ki,Focal adhesion kinase 1,> 1.58 µM (inactive)
same,Ki,[6],> 5.01 µM (inactive)
same,Ki,[7],1 µM (active)
same,Ki,[8],0.001 µM (active)

# From ChEMBL document CHEMBL1201862, “PubChem BioAssay data set” (2004)
